“Also recorded” adds a separate entry of the source. Structures can show the parent of a compound that is named as a salt. Where two headings read alike, the source gives them in different places.
Tests used:
SARS-CoV-2 [1] = assay: microbe, parasite or virus in culture; format: cell-based; conditions: for IC50: SARS-CoV-2 infected Vero cells; for anti-SARS-CoV-2 activity (in words): Vero cell assay
[2] = Cytotoxicity (cell viability) in the SARS-CoV-2 Vero cell assay; conditions: African green monkey, Vero cells
in vitro = conditions: African green monkey, Vero cells
HCoV-229E = assay: Anti-HCoV-229E compound testing in MRC5 cells (Cell-Titer Glo); format: cell-based; conditions: for EC50: Human coronavirus 229E; for activity against HCoV-229E (in words): MRC5 cells
Procedure: (§1) Human lung fibroblast MRC5 cells were cultured in a 96-well plate at 10,000 cells/well in EMEM + 10% FBS overnight. The next day the culture medium was removed from each well and compounds in EMEM + 2% FBS + 0.5% DMSO were added. Each drug was tested on its own 96 well plate. Each plate contained 3 wells of uninfected cells without DMSO, 3 wells of uninfected cells with 0.5% DMSO, 3 wells of infected cells with no DMSO, and 3 wells of infected cells with 0.5% DMSO. Experimental compounds were tested in triplicate at each concentration. Tanespimycin, bortezomib, and homoharringtonine were tested using 2 µM starting concentration, 8-point, threefold serial dilution. After a 1-h pre-incubation with testing compounds, HCoV-229E or HCoV-OC43 viruses at an MOI of 0.01 were added to the culture with compounds for another 1 h. Cell-Titer Glo assay was added after additional incubation time with compounds of interest (HCoV-229E for 96 h and HCoV-OC43 for 120 h). Assay readout was performed using luminescence measurement on a Tecan Spark plate reader.
(§2) CC50 values were determined by applying nonlinear fit of luminescence readouts from uninfected, compound-treated wells against compound concentration. Likewise, EC50 values were determined by nonlinear fit of luminescence readouts from virus-infected, compound-treated wells. Nonlinear regression models were applied for derivation of EC50 and CC50 values respectively, based on built-in equations of Prism Version 8.2.1 (GraphPad Software, San Diego, CA). SI calculated as the ratio of CC50 to EC50.

HCoV-OC43 = assay: Anti-HCoV-OC43 compound testing in MRC5 cells (Cell-Titer Glo); format: cell-based; conditions: for activity against HCoV-OC43 (in words): MRC5 cells
Procedure: as §1, §2

SARS-CoV-1 = conditions: 10 μM, Huh-7 cells; cited from earlier work
SARS-CoV-2 [3] = conditions: 10 μM, Huh-7 cells; cited from earlier work
MERS-CoV = conditions: 10 μM, Huh-7 cells; cited from earlier work
[4] = Cytotoxicity in uninfected, compound-treated MRC5 cells (Cell-Titer Glo); conditions: human
SARS-CoV-2 [5] = conditions: read-out: reported IC50; cited from earlier work
[6] = Clinical dosing estimation of compounds (clinical exposure, Cmax); conditions: calculated from published Cmax and molecular weight
[7] = human, in vivo
Vero cells = assay: Cytotoxicity (cell viability) in the SARS-CoV-2 Vero cell assay; conditions: Table 2 test
[8] = Severe acute respiratory syndrome coronavirus 2, Vero, 24 h, Table 2 test (average reversal score predicted compounds)
[9] = Severe acute respiratory syndrome coronavirus 2, Vero, Round 1, 24 h, 1-h preincubation
[10] = Severe acute respiratory syndrome coronavirus 2, Vero, Round 2, 24 h, 1-h preincubation
[11] = Severe acute respiratory syndrome coronavirus 2, Vero, Round 2, 24 h, 1-h preincubation, read-out: IC50
[12] = Betacoronavirus 1, MRC5 cells infected with HCoV-OC43, MOI 0.01, 120 h, read-out: EC50
[13] = Severe acute respiratory syndrome coronavirus 2, Vero, Round 1, 24 h, 1-h preincubation, read-out: IC50
[14] = MRC5 cells infected with HCoV-229E, MOI 0.01, 96 h, read-out: EC50
[15] = uninfected MRC5 lung fibroblast cells

SMILES: O=C(O)c1ccccc1Nc1cccc(OCc2ccc3ccccc3n2)c1 [SR-2640 hydrochloride]
- IC50 (SARS-CoV-2 [1]; [8]): 24.2 µM
- anti-SARS-CoV-2 activity (in words) (SARS-CoV-2 [1]): did not result in a meaningful effect on viral production
- CC50 at 24 h ([2]; CC50, Table 2 test): > 50 µM

SMILES: CCN(CC)CCCC(C)Nc1ccnc2cc(Cl)ccc12 (stereo not shown) [Chloroquine]
- IC50 (SARS-CoV-2 [1]; [8]): 11.3 µM
- IC50 (SARS-CoV-2 [1]; [9]): 12 µM
- IC50 (SARS-CoV-2 [1]; [10]): 9.8 µM
- CC50 (in vitro; CC50, Round 1): 128 µM
- CC50 (in vitro; CC50, Round 2): > 150 µM
- CC50 (in vitro; CC50, Table 2 test): > 150 µM

SMILES: C=CCNC1=C2C[C@@H](C)C[C@H](OC)[C@H](O)[C@@H](C)/C=C(\C)[C@H](OC(N)=O)[C@@H](OC)/C=C\C=C(/C)C(=O)NC(=CC1=O)C2=O [Tanespimycin]
- IC50 (SARS-CoV-2 [1]; [11]): 31.3 µM
- anti-SARS-CoV-2 activity (in words) (SARS-CoV-2 [1]): no activity
- anti-SARS-CoV-2 activity (in words) (SARS-CoV-2 [1]; listed as tanespimycin): neither tanespimycin nor a second generation HSP90 inhibitor ganetespib exhibited anti-viral efficacy
- EC50 (HCoV-229E; MRC5): < 0.001 µM
- EC50 (HCoV-229E; MRC5, 96 h): 0.0036 µM
- activity against HCoV-229E (in words) (HCoV-229E): effective
- activity against HCoV-229E (in words) (HCoV-229E; listed as tanespimycin): highly potent
- EC50 (HCoV-OC43; Betacoronavirus 1, OC43, MRC5): < 0.001 µM
- EC50 (HCoV-OC43; [12]): 0.0019 µM
- activity against HCoV-OC43 (in words) (HCoV-OC43): effective
- activity against HCoV-OC43 (in words) (HCoV-OC43; listed as tanespimycin): highly potent
- inhibition of viral activities of SARS-CoV-1 (SARS-CoV-1): effectively inhibited
- inhibition of viral activities of SARS-CoV-2 (SARS-CoV-2 [3]): effectively inhibited
- inhibition of viral activities of MERS-CoV (MERS-CoV): effectively inhibited
- CC50 at 24 h ([2]; CC50, Round 2): > 50 µM
- CC50 at 96 h [4]: 0.182 µM
- CC50 at 120 h [4]: 0.253 µM

SMILES: N[C@@H](CC(=O)N1CCn2c(nnc2C(F)(F)F)C1)Cc1cc(F)c(F)cc1F [Sitagliptin]
- IC50 (SARS-CoV-2 [1]; Severe acute respiratory syndrome coronavirus 2, Vero, 24 h, Table 2 test (average reversal score predicted compounds), read-out: IC50): > 50 µM
- anti-SARS-CoV-2 activity (in words) (SARS-CoV-2 [1]): did not show meaningful anti-SARS-CoV-2 activity
- CC50 at 24 h ([2]; CC50, Table 2 test): > 50 µM

SMILES: CC(C)C[C@H](NC(=O)CNC(=O)c1cc(Cl)ccc1Cl)B(O)O [Ixazomib]
- IC50 (SARS-CoV-2 [1]; [11]): 11.7 µM
- anti-SARS-CoV-2 activity (in words) (SARS-CoV-2 [1]): showed efficacy in controlling viral load
- CC50 at 24 h ([2]; CC50, Round 2): > 50 µM

SMILES: C#CCC(Cc1cnc2nc(N)nc(N)c2n1)c1ccc(C(=O)N[C@@H](CCC(=O)O)C(=O)O)cc1 (stereo partly shown) [Pralatrexate]
- IC50 (SARS-CoV-2 [5]): 0.008 µM

SMILES: CC[C@@H](C(N)=O)N1CCCC1=O [Levetiracetam]
- IC50 (SARS-CoV-2 [1]; [8]): > 50 µM
- anti-SARS-CoV-2 activity (in words) (SARS-CoV-2 [1]): no anti-viral activity
- anti-SARS-CoV-2 activity (in words) (SARS-CoV-2 [1]; listed as levetiracetam): did not show meaningful anti-SARS-CoV-2 activity; also recorded: did not result in a meaningful effect on viral production
- CC50 at 24 h ([2]; CC50, Table 2 test): > 50 µM

SMILES: CC(C)c1cc(-c2n[nH]c(=O)n2-c2ccc3c(ccn3C)c2)c(O)cc1O [Ganetespib]
- IC50 (SARS-CoV-2 [1]; [11]): 35.5 µM
- anti-SARS-CoV-2 activity (in words) (SARS-CoV-2 [1]): no activity; also recorded: neither tanespimycin nor a second generation HSP90 inhibitor ganetespib exhibited anti-viral efficacy
- CC50 at 24 h ([2]; CC50, Round 2): 28.9 µM

SMILES: CCC(CC)COC(=O)[C@H](C)N[P@](=O)(OC[C@H]1O[C@@](C#N)(c2ccc3c(N)ncnn23)[C@H](O)[C@@H]1O)Oc1ccccc1 [Remdesivir]
- IC50 (SARS-CoV-2 [1]; [8]): 8.58 µM
- IC50 (SARS-CoV-2 [1]; [9]): 12.1 µM
- IC50 (SARS-CoV-2 [1]; [10]): 7.45 µM
- CC50 at 24 h ([2]; CC50, Round 1): > 50 µM
- CC50 at 24 h ([2]; CC50, Round 2): > 50 µM
- CC50 at 24 h ([2]; CC50, Table 2 test): > 50 µM

SMILES: CC(=O)Nc1cccc(-n2c(=O)n(C3CC3)c(=O)c3c(Nc4ccc(I)cc4F)n(C)c(=O)c(C)c32)c1 [Trametinib]
- IC50 (SARS-CoV-2 [1]; [13]): 15 µM
- CC50 at 24 h ([2]; CC50, Round 1): > 50 µM
- Clinical Exposure [6]: 0.045 µM

SMILES: CCOC(=O)C1=C(C)NC(C)=C(C(=O)OCC)C1c1ccccc1/C=C/C(=O)OC(C)(C)C [Lacidipine]
- IC50 (SARS-CoV-2 [1]; [13]): 14.9 µM
- Clinical Exposure [7]: 0.003 to 0.013 µM
- CC50 at 24 h ([2]; CC50, Round 1): 20.2 µM

SMILES: CC(C)C[C@H](NC(=O)[C@H](Cc1ccccc1)NC(=O)c1cnccn1)B(O)O [Bortezomib]
- IC50 (SARS-CoV-2 [1]; [13]): 1.39 µM
- IC50 (SARS-CoV-2 [1]; [11]): 3.42 µM
- anti-SARS-CoV-2 activity (in words) (SARS-CoV-2 [1]): showed efficacy in controlling viral load
- EC50 (HCoV-229E; [14]): 0.252 µM
- activity against HCoV-229E (in words) (HCoV-229E): no activity
- activity against HCoV-229E (in words) (HCoV-229E; listed as bortezomib): did not find bortezomib to be effective
- EC50 (HCoV-OC43; [12]): 0.666 µM
- activity against HCoV-OC43 (in words) (HCoV-OC43): no activity
- activity against HCoV-OC43 (in words) (HCoV-OC43; listed as bortezomib): did not find bortezomib to be effective
- Clinical Exposure [7]: 0.29 µM
- Clinical Exposure ([7]; iv): approximately 580 nM
- CC50 at 24 h ([2]; CC50, Round 1): > 50 µM
- CC50 at 24 h ([2]; CC50, Round 2): > 50 µM
- CC50 at 96 h [4, 15]: 0.536 µM
- CC50 at 120 h [4, 15]: 0.591 µM

SMILES: Cc1ccc(Cl)c(Nc2ccccc2C(=O)O)c1Cl [Meclofenamic acid sodium salt]
- CC50 at 24 h ([2]; CC50, Table 2 test): > 50 µM

SMILES: COC(=O)C[C@](O)(CCCC(C)(C)O)C(=O)O[C@@H]1C(OC)=C[C@]23CCCN2CCc2cc4c(cc2[C@H]13)OCO4 [Homoharringtonine]
- average EC50/IC50 (SARS-CoV-2 [1]; SARS-CoV-2, Vero cells, average of the rounds): under 300 nM
- IC50 (SARS-CoV-2 [1]; [9]): 0.16 µM
- IC50 (SARS-CoV-2 [1]; [10]): 0.26 µM
- anti-SARS-CoV-2 activity (in words) (SARS-CoV-2 [1]): highly effective
- EC50 (HCoV-229E; MRC5): < 0.1 µM
- EC50 (HCoV-229E; [14]): 0.0511 µM
- activity against HCoV-229E (in words) (HCoV-229E): highly effective
- EC50 (HCoV-OC43; Betacoronavirus 1, OC43, MRC5): < 0.1 µM
- EC50 (HCoV-OC43; [12]): 0.126 µM
- activity against HCoV-OC43 (in words) (HCoV-OC43): highly effective
- CC50 at 24 h ([2]; CC50, Round 1): 2.14 µM
- CC50 at 24 h ([2]; CC50, Round 2): 6.22 µM
- Clinical Exposure [6]: 0.046 µM
- CC50 at 96 h [4, 15]: 0.205 µM
- CC50 at 120 h [4, 15]: 0.167 µM

SMILES: Cc1cccc(C)c1OCC(=O)N[C@@H](Cc1ccccc1)[C@@H](O)C[C@H](Cc1ccccc1)NC(=O)[C@H](C(C)C)N1CCCNC1=O [Lopinavir]
- IC50 (SARS-CoV-2 [1]; [8]): 12.6 µM
- IC50 (SARS-CoV-2 [1]; [10]): 13.5 µM
- CC50 at 24 h ([2]; CC50, Round 2): > 50 µM
- CC50 at 24 h ([2]; CC50, Table 2 test): > 50 µM

SMILES: N[C@@H]1CCCN(c2c(/C=C3\SC(=O)NC3=O)cccc2-c2ccccc2)C1 [AZD-1208]
- IC50 (SARS-CoV-2 [1]; Table 2 test (average reversal score predicted compounds), read-out: IC50): 27.3 µM
- CC50 (Vero cells): > 50 µM

SMILES: Cc1nc(Nc2ncc(C(=O)Nc3c(C)cccc3Cl)s2)cc(N2CCN(CCO)CC2)n1 [Dasatinib]
- IC50 (SARS-CoV-2 [1]; [13]): 19.7 µM
- CC50 at 24 h ([2]; CC50, Round 1): 13.2 µM

Source: paper PMC9637228, “Elucidating host cell response pathways and repurposing therapeutics for SARS-CoV-2 and other coronaviruses” (Scientific Reports, 2022)
